According to patent publication US12297179B2, “Crystalline and salt forms of an organic compound and pharmaceutical compositions thereof” (Servier Pharmaceuticals LLC, priority 2018, dated 2025):
Where a name gives a salt, the structure may show the parent alone. Marks after values point to notes of the source that are not given here.

Columns and labels:
[1] = Sprague Dawley, rat, in vivo, po, 100 mg/kg
Protocol: The objective of the pharmacokinetic (PK) studies was to determine the pharmacokinetics of the different forms of Compound 1 in intact Sprague Dawley rats after oral (PO) administration. […] Food and water were available to all animals ad libitum and Compound 1 or Tris salt Form C of Compound was dosed orally at 100 mg/kg (100 mL/kg). Approximately 110 μL of whole blood was collected via tail vein bleeding predose and at 0.083, 0.25, 0.5, 1, 2, 4, 8, 12 and 24 hours postdose into tubes containing the anticoagulant K2EDTA, processed to obtain plasma, and stored at approximately −70° C. until analysis. Concentrations of the active pharmaceutical ingredient in plasma samples were quantified using a nonvalidated liquid chromatography with tandem mass spectrometry (LC-MS/MS) method. Pharmacokinetic analysis of the individual plasma concentration data was performed using WinNonlin© (Version 6.4; Pharsight Corporation, Mountain View, CA, USA). Pharmacokinetic parameters were estimated using a noncompartmental extravascular models method. Area under the concentration-time curve (AUC) was calculated using the linear trapezoidal rule. […] Concentrations that were <80% of the LLOQ were designated as BLQ.

[2] = Thermodynamic stability: slurry competition between Tris salt Forms A and C; type: physicochemical; conditions: DMSO/EtOH (1:8, v/v) and EtOH, 5° C./RT/50° C./75° C., 7 days
Protocol: The thermodynamic stability relationship between Tris salt Forms A and C was investigated via slurry competition experiments in 2 process related solvent systems, DMSO/EtOH (1:8, v/v) and EtOH at 4 temperature conditions (5° C./RT/50° C./75° C.). Two stages of slurry competition experiments were conducted, of which the first stage included temperature as a variable and the second stage used newly opened reagents to minimize the effect of absorbed moisture. Typical experimental procedures are described below.
About 5-10 mg of crystalline Tris salt Form C was first dissolved in ˜1.0 mL of corresponding solvent to form nearly saturated solution under corresponding temperature (equilibrating method: stirring magnetically, ˜1000 rpm, ˜2 hrs). Then ˜15 mg of each form (crystalline Tris salt Forms A and C) was physically mixed, followed by addition of the nearly saturated solution to form a suspension. The suspensions were then stirred (˜1000 rpm) under corresponding temperature for 7 days (a small amount of solids were sampled at 2 day point in the second stage experiments). The obtained solids were isolated via centrifugation (10000 rpm, 2 mins) and tested by XRPD to confirm the form.

[3] = Kinetic solubility in bio-relevant media (SGF/FaSSGF, FaSSIF, FeSSIF) and H2O at 37° C., with pH of supernatant; type: physicochemical; conditions: for solubility at 15 min / solubility at 30 min / solubility at 1 h / solubility at 2 h / solubility at 24 h: 37 °C, thermodynamic from solid; for Solubility: 37° C.
Protocol: Weigh 100 mg of sodium chloride into a 50-mL volumetric flask. Add appropriate volume of purified water and sonicate until all solids are completely dissolved. Add sufficient purified water closely to the target volume and adjust to pH 1.6. Weigh 3 mg of FaSSIF/FeSSIF/FaSSGF powder into the volumetric flask and sonicate until the powder is completely dissolved. Dilute to target volume with purified water and mix well.
Weigh 0.170 g of monobasic sodium phosphate, 0.021 g of sodium hydroxide and 0.31 g of sodium chloride into a 50-mL volumetric flask. Add appropriate volume of purified water and sonicate until all solids are completely dissolved. Add sufficient purified water closely to the target volume and adjust to pH 6.5. Weigh 110 mg of FaSSIF/FeSSIF/FaSSGF powder into the volumetric flask and sonicate until the powder is completely dissolved. Dilute to target volume with purified water and mix well.
Weigh 0.41 mL of glacial acetic acid, 0.202 g of sodium hydroxide and 0.594 g of sodium chloride into a 50-mL volumetric flask. Add appropriate volume of purified water and sonicate until all solids are completely dissolved. Add sufficient purified water closely to the target volume and adjust to pH 5.0. Weigh 560 mg of FaSSIF/FeSSIF/FaSSGF powder into the volumetric flask and sonicate until the powder is completely dissolved. Dilute to target volume with purified water and mix well.
An Agilent 1260 HPLC with DAD detector was utilized and detailed chromatographic conditions for solubility analysis are listed in Table 5.
Kinetic solubility of Tris salt Form A and free acid Form D were measured in three bio-relevant media (SGF, FaSSIF and FeSSIF) at 37° C. In details, ˜30 mg solids were suspended into 4.0 mL of each medium initially and equilibrated via shaking (500 rpm) at 37° C. Approximately 0.8 mL suspension was extracted at each time point of 15/30/60/120 mins and 24 hrs. The supernatant and precipitate were separated by centrifugation (10000 rpm, ˜3 mins) followed by concentration (HPLC) and pH measurement for supernatant and the corresponding solid forms were characterized by XRPD.
Due to the thermodynamic stability of Tris salt Form C, further evaluation was conducted, including kinetic solubility in three bio-relevant media (FaSSGF/FaSSF/FeSSIF) and H2O at 37° C.

[4] = Hygroscopicity by dynamic vapor sorption (DVS); type: physicochemical; conditions: for moisture uptake: DVS, humidity varied from 0% RH to 80% RH at 25° C.
Protocol: DVS was measured via a SMS (Surface Measurement Systems) DVS Intrinsic. The relative humidity at 25° C. was calibrated against deliquescence point of LiCl, Mg(NO3)2 and KCl.

For Cc1ccccc1-c1ccc(-c2cc(C(=O)O)c3c(c2)nnn3C)cc1 [Tris salt, 1-methyl-5-(2′-methyl-[1,1′-biphenyl]-yl)-1H-benzo[d][1,2,3]triazole-7-carboxylate Tris salt], the “Cmax, fold higher than best free acid batch Lot B” value [1] was about 1.5 fold and the “Tmax, fold lower than best free acid batch Lot B” value [1] was about 2 fold.
With Cc1ccccc1-c1ccc(-c2cc(C(=O)O)c3c(c2)nnn3C)cc1 [Tris salt Form C] the “form after slurry competition (XRPD), thermodynamic stability” value [2] was “thermodynamically more stable”, the solubility at 15 min ([3]; FaSSIF, pH 6.5, fassif, Table 12, FaSSIF, 15 min) was 390 µg/mL and the solubility at 30 min ([3]; FaSSIF, pH 6.5, fassif, Table 12, FaSSIF, 30 min) was 320 µg/mL. The solubility at 1 h ([3]; FaSSIF, pH 6.5, fassif, Table 12, FaSSIF, 1 h) was 250 µg/mL, the solubility at 2 h ([3]; FaSSIF, pH 6.5, fassif, Table 12, FaSSIF, 2 h) was 220 µg/mL and the solubility at 24 h ([3]; FaSSIF, pH 6.5, fassif, Table 12, FaSSIF, 24 h) was 170 µg/mL. It also gave a solubility at 15 min ([3]; FeSSIF, pH 5, fessif, Table 12, FeSSIF, 15 min) of 330 µg/mL, a solubility at 30 min ([3]; FeSSIF, pH 5, fessif, Table 12, FeSSIF, 30 min) of 270 µg/mL and a solubility at 1 h ([3]; FeSSIF, pH 5, fessif, Table 12, FeSSIF, 1 h) of 50 µg/mL. For the same compound, the solubility at 2 h ([3]; FeSSIF, pH 5, fessif, Table 12, FeSSIF, 2 h) was 40 µg/mL, the solubility at 24 h ([3]; FeSSIF, pH 5, fessif, Table 12, FeSSIF, 24 h) was 40 µg/mL and the Solubility ([3]; Table 12, FaSSGF, 15 min) was “<LOD”. The Solubility ([3]; Table 12, FaSSGF, 30 min) was “<LOD”, the Solubility ([3]; Table 12, FaSSGF, 1 h) was “<LOD” and the Solubility ([3]; Table 12, FaSSGF, 2 h) was “<LOD”. The Solubility ([3]; Table 12, FaSSGF, 24 h) was “<LOD”, the pH ([3]; Table 12, FaSSGF, 15 min) was 3.0 and the pH ([3]; Table 12, FaSSGF, 30 min) was 3.1. It also gave a pH ([3]; Table 12, FaSSGF, 1 h) of 4.0, a pH ([3]; Table 12, FaSSGF, 2 h) of 4.1 and a pH ([3]; Table 12, FaSSGF, 24 h) of 3.1. The pH ([3]; Table 12, FaSSIF, 15 min) was 7.7, the pH ([3]; Table 12, FaSSIF, 30 min) was 7.8 and the pH ([3]; Table 12, FaSSIF, 1 h) was 7.8. For the same compound, the pH ([3]; Table 12, FaSSIF, 2 h) was 7.8, the pH ([3]; Table 12, FaSSIF, 24 h) was 7.9 and the pH ([3]; Table 12, FeSSIF, 15 min) was 5.5*. For the same compound, the pH ([3]; Table 12, FeSSIF, 30 min) was 5.6*, the pH ([3]; Table 12, FeSSIF, 1 h) was 5.6 and the pH ([3]; Table 12, FeSSIF, 2 h) was 5.6. For the same compound, the pH ([3]; Table 12, FeSSIF, 24 h) was 5.6, the pH ([3]; Table 12, H2O, 15 min) was 8.9 and the pH ([3]; Table 12, H2O, 30 min) was 9.0. The pH ([3]; Table 12, H2O, 1 h) was 9.0, the pH ([3]; Table 12, H2O, 2 h) was 9.0 and the pH ([3]; Table 12, H2O, 24 h) was 9.2. It also gave a solubility at 15 min ([3]; water, Table 12, H2O, 15 min) of 810 µg/mL, a solubility at 30 min ([3]; water, Table 12, H2O, 30 min) of 820 µg/mL and a solubility at 1 h ([3]; water, Table 12, H2O, 1 h) of 720 µg/mL. For the same compound, the solubility at 2 h ([3]; water, Table 12, H2O, 2 h) was 750 µg/mL, the solubility at 24 h ([3]; water, Table 12, H2O, 24 h) was 400 µg/mL and the “solid form after the DVS test (XRPD)” value ([4]; 25° C.) was “remained as Tris salt Form C”. For the same compound, the moisture uptake [4] was about 0.04 wt %.
For Cc1ccccc1-c1ccc(-c2cc(C(=O)O)c3c(c2)nnn3C)cc1 [Tris salt Form A], the “form after slurry competition (XRPD), thermodynamic stability” value [2] was “converted to Tris salt Form C”, the Solubility ([3]; FaSSIF, 15 mins) was 490 µg/mL and the Solubility ([3]; FaSSIF, 30 mins) was 260 µg/mL. For the same compound, the Solubility ([3]; FaSSIF, 60 mins) was 200 µg/mL, the Solubility ([3]; FaSSIF, 120 mins) was 170 µg/mL and the Solubility ([3]; FaSSIF, 24 hrs) was 130 µg/mL. The Solubility ([3]; FeSSIF, 15 mins) was 160 µg/mL, the Solubility ([3]; FeSSIF, 30 mins) was 200 µg/mL and the Solubility ([3]; FeSSIF, 60 mins) was 290 µg/mL. For the same compound, the Solubility ([3]; FeSSIF, 120 mins) was 81 µg/mL, the Solubility ([3]; FeSSIF, 24 hrs) was 120 µg/mL and the Solubility ([3]; SGF, 15 mins) was 60 µg/mL. It also gave a Solubility ([3]; SGF, 30 mins) of 94 µg/mL, a Solubility ([3]; SGF, 60 mins) of 100 µg/mL and a Solubility ([3]; SGF, 24 hrs) of 110 µg/mL. It also gave a solubility at 24 h ([3]; SGF, FaSSIF and FeSSIF, fassgf or other biorelevant, all SGF/FaSSIF/FeSSIF media, at 24 hours point) of over 100 µg/mL, a pH ([3]; supernatant, FaSSIF (blank pH 6.5), 15 mins) of 7.5 and a pH ([3]; supernatant, FaSSIF (blank pH 6.5), 30 mins) of 7.5. It also gave a pH ([3]; supernatant, FaSSIF (blank pH 6.5), 60 mins) of 7.5, a pH ([3]; supernatant, FaSSIF (blank pH 6.5), 120 mins) of 7.5 and a pH ([3]; supernatant, FaSSIF (blank pH 6.5), 24 hrs) of 7.5. For the same compound, the pH ([3]; supernatant, FeSSIF (blank pH 5.0), 15 mins) was 5.4, the pH ([3]; supernatant, FeSSIF (blank pH 5.0), 30 mins) was 5.5 and the pH ([3]; supernatant, FeSSIF (blank pH 5.0), 60 mins) was 5.5. For the same compound, the pH ([3]; supernatant, FeSSIF (blank pH 5.0), 120 mins) was 5.5, the pH ([3]; supernatant, FeSSIF (blank pH 5.0), 24 hrs) was 5.5 and the pH ([3]; supernatant, SGF (blank pH 1.8), 15 mins) was 6.6. It also gave a pH ([3]; supernatant, SGF (blank pH 1.8), 30 mins) of 7.2, a pH ([3]; supernatant, SGF (blank pH 1.8), 60 mins) of 7.3 and a pH ([3]; supernatant, SGF (blank pH 1.8), 120 mins) of 7.4. For the same compound, the pH ([3]; supernatant, SGF (blank pH 1.8), 24 hrs) was 7.4 and the moisture uptake [4] was about 5 wt %.
